Counter-ions that a name gives are not always drawn.
Molecular target: T1, SPNS2 (Mus musculus, UniProt Q91VM4)
T1 construct: expressed in transfected cells; host or cells: HeLa or U937 cells
T1 sequence (Q91VM4 1-549): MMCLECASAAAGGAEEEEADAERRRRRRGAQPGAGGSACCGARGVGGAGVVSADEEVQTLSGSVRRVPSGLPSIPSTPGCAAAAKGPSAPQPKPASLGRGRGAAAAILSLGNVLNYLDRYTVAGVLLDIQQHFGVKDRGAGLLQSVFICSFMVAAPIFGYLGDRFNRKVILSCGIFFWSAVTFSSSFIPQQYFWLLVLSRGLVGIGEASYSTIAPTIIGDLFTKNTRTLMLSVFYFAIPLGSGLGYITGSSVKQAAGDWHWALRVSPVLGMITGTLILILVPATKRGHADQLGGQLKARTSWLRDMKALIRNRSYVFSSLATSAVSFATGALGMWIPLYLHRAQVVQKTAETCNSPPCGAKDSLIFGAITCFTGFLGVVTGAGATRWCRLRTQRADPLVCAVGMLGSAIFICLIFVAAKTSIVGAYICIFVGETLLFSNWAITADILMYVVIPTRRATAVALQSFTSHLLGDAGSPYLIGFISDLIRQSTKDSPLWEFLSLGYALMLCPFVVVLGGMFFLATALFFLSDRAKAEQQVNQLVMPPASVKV
Assay: S1P transporter assay: S1P release from whole cells expressing SPNS2
Type: cell-based
Details: HeLa or U937 cells expressing mouse SPNS2; 18 hours; S1P in media measured by LC-MS; read-out: IC50 (in vitro inhibition against SPNS2)
Description: Transporter assays are vectorial and therefore require measurement of the transported analyte in different compartments. The S1P transporter SPNS2 only exports S1P, which obviates measuring uptake of S1P into transporter-expressing cells. Thus, transporter activity was determined by quantifying S1P release from whole cells expressing SPNS2. SPNS2 inhibitor potency was assessed using whole cell assays. HeLa or U937 cells expressing mouse SPNS2 were used to determine inhibitor potency (IC50). Cells were plated onto 12 well plates and assayed when the cell monolayers became confluent. Cell growth media (RPMI-1640 containing 10% fetal bovine serum) was replaced with 2 mL of serum-free media (RPMI-1640) containing fatty acid free bovine serum albumin (BSA) (0.2% w/v) and supplemented with 4-deoxypyridoxine (DOP) (1 mM), NaF (2 mM), Na3VO4 (0.2 mM) to inhibit S1P degradation. Test articles (1×10-9-1×10^-4 M) were assayed in duplicate or triplicate. After 18 hours, media was collected, an internal recovery standard (0.005 mL of 5×10^-7 M deuterated (d7) S1P in methanol) was added, the BSA was precipitated with trichloroacetic acid and the bound S1P extracted with methanol. S1P and S1P-d7 were measured by liquid chromatography mass spectrometry. Inhibitor potency at the human SPNS2 ortholog was determined by an analogous assay using U-937 cells, which endogenously express human SPNS2.

Compound | IC50 [nM]
CCCCCCCCCCc1ccc(-c2noc(CNC(=O)[C@@H]3C[C@H](O)CN3)n2)cc1 [Compound 9v, (2S,4S)—N-((3-(4-decylphenyl)-1,2,4-oxadiazol-5-yl)methyl)-4-hydroxypyrrolidine-2-carboxamide hydrochloride] | > 2000
CCCCCCCCCCc1ccc(-c2noc(CNC(=O)C[C@@H]3CCNC3)n2)cc1 [Compound 9k, (S)—N-((3-(4-decylphenyl)-1,2,4-oxadiazol-5-yl)methyl)-2-(pyrrolidin-3-yl)acetamide hydrochloride] | ≤ 2000
CCCCCCCCCCc1ccc(-c2noc(CCCN(C)C)n2)cc1 [Compound 5l, 3-(3-(4-decylphenyl)-1,2,4-oxadiazol-5-yl)-N,N-dimethylpropan-1-amine hydrochloride] | > 2000
CCCCCCCCCCc1ccc(-c2noc(CNC(=O)C[C@@H]3CCCNC3)n2)cc1 [Compound 9o, (S)—N-((3-(4-decylphenyl)-1,2,4-oxadiazol-5-yl)methyl)-2-(piperidin-3-yl)acetamide hydrochloride] | > 2000
CCCCCCCCCCc1ccc(-c2noc(CCCN3CCCC3)n2)cc1 [Compound 6d, 3-(4-decylphenyl)-5-(3-(pyrrolidin-1-yl)propyl)-1,2,4-oxadiazole hydrochloride] | > 2000
CCCCCCCOc1ccc2cc(-c3noc([C@@H]4CCNC4)n3)ccc2c1 [Compound 5x, (R)-3-(6-(heptyloxy)naphthalen-2-yl)-5-(pyrrolidin-3-yl)-1,2,4-oxadiazole hydrochloride] | > 2000
CCCCCCCCCCc1ccc(-c2noc(CNC(=O)[C@@H](N)[C@@H](C)CC)n2)cc1 [Compound 9n, (2S,3S)-2-amino-N-((3-(4-decylphenyl)-1,2,4-oxadiazol-5-yl)methyl)-3-methylpentanamide hydrochloride] | > 2000
CCCCCCCOc1ccc2cc(-c3noc(CCCN)n3)ccc2c1 [Compound 5w, 3-(3-(6-(heptyloxy)naphthalen-2-yl)-1,2,4-oxadiazol-5-yl)propan-1-amine hydrochloride] | ≤ 2000
CCCCCCCCCCc1ccc(-c2noc([C@H](N)CCCCN)n2)cc1 [Compound 19d, (R)-1-(3-(4-decylphenyl)-1,2,4-oxadiazol-5-yl)pentane-1,5-diamine dihydrochloride] | > 2000
CCCCCCCCNC(=O)c1ccc(-c2noc(CCCN)n2)cc1 [Compound 13d, 4-(5-(3-aminopropyl)-1,2,4-oxadiazol-3-yl)-N-octylbenzamide hydrochloride] | > 2000
CCCCCCCCCCc1ccc(-c2noc(CNC(=O)C3CCCCCN3)n2)cc1 (centres unmarked) [Compound 9u, N-((3-(4-decylphenyl)-1,2,4-oxadiazol-5-yl)methyl)azepane-2-carboxamide hydrochloride] | ≤ 2000
CCCCCCCCCCc1ccc(-c2noc(CNC(=O)CN3CCNCC3)n2)cc1 [Compound 9c, N-((3-(4-decylphenyl)-1,2,4-oxadiazol-5-yl)methyl)-2-(piperazin-1-yl)acetamide hydrochloride] | > 2000
CCCCCCCCCCc1ccc(-c2noc(CCNC(=O)CN)n2)cc1 [Compound 9h, 2-amino-N-(2-(3-(4-decylphenyl)-1,2,4-oxadiazol-5-yl)ethyl)acetamide hydrochloride] | ≤ 2000
CCCCCCCCCCc1ccc(-c2noc(CC(O)CN3CCOCC3)n2)cc1 (centres unmarked) [Compound 6c, 1-(3-(4-decylphenyl)-1,2,4-oxadiazol-5-yl)-3-morpholinopropan-2-ol hydrochloride] | > 2000
CCCCCCCCCCc1ccc(-c2noc(CCCNC)n2)cc1 [Compound 5m, 3-(3-(4-decylphenyl)-1,2,4-oxadiazol-5-yl)-N-methylpropan-1-amine hydrochloride] | > 2000
CCCCCCCCCCc1ccc(-c2noc(CNC(=O)[C@@H](N)CCCC(=O)OC)n2)cc1 [Compound 9aa, methyl (S)-5-amino-6-(((3-(4-decylphenyl)-1,2,4-oxadiazol-5-yl)methyl)amino)-6-oxohexanoate hydrochloride] | ≤ 2000
CCCCCCCCCCc1ccc(-c2noc(CNC(=O)CNC)n2)cc1 [Compound 9l, N-((3-(4-decylphenyl)-1,2,4-oxadiazol-5-yl)methyl)-2-(methylamino)acetamide hydrochloride] | ≤ 2000
CCCCCCCCCCc1ccc(-c2noc([C@@H]3CC[C@H](N)C3)n2)cc1 [Compound 5d, (1S,3R)-3-(3-(4-decylphenyl)-1,2,4-oxadiazol-5-yl)cyclopentan-1-amine hydrochloride] | > 2000

Compound | IC50 [nM]
CCCCCCCCCCc1ccc(-c2noc([C@H](CCCCN)NC(C)=O)n2)cc1 [Compound 21, (S)—N-(5-amino-1-(3-(4-decylphenyl)-1,2,4-oxadiazol-5-yl)pentyl)acetamide hydrochloride] | > 2000
CCCCCCCCCCc1ccc(-c2noc(CNC(=O)CCCN)n2)cc1 [Compound 9d, 4-amino-N-((3-(4-decylphenyl)-1,2,4-oxadiazol-5-yl)methyl)butanamide hydrochloride] | ≤ 2000
CCCCCCCCCc1ccc(Cc2noc(CCCN)n2)cc1 [Compound 5r, 3-(3-(4-nonylbenzyl)-1,2,4-oxadiazol-5-yl)propan-1-amine hydrochloride] | > 2000
CCCCNC(=O)c1ccc(-c2noc(CCCN)n2)cc1 [Compound 13b, 4-(5-(3-aminopropyl)-1,2,4-oxadiazol-3-yl)-N-butylbenzamide hydrochloride] | > 2000
CCCCCCCCCCc1ccc(-c2noc([C@H]3CCC[C@@H](N)C3)n2)cc1 (racemic) [Compound 5p, (f)-cis-3-(3-(4-decylphenyl)-1,2,4-oxadiazol-5-yl)cyclohexan-1-amine hydrochloride] | > 2000
CCCCCCCCCCc1ccc(-c2noc([C@@H]3CCN(C(=O)[C@@H](N)CO)C3)n2)cc1 [Compound 9aj] | > 2000
CCCCCCCCCCc1ccc(-c2noc(CC(O)CN)n2)cc1 (centres unmarked) [Compound 5g, 1-amino-3-(3-(4-decylphenyl)-1,2,4-oxadiazol-5-yl)propan-2-ol hydrochloride] | > 2000
CCCCCCCCCCc1ccc(-c2noc(CC(O)CN3CCCC3)n2)cc1 (centres unmarked) [Compound 6b, 1-(3-(4-decylphenyl)-1,2,4-oxadiazol-5-yl)-3-(pyrrolidin-1-yl)propan-2-ol hydrochloride] | > 2000
CCCCCCCCCCc1ccc(-c2noc(CNC(=O)[C@@H]3CCN3)n2)cc1 [Compound 9z, (S)—N-((3-(4-decylphenyl)-1,2,4-oxadiazol-5-yl)methyl)azetidine-2-carboxamide 2,2,2-trifluoroacetate] | ≤ 2000
CCCCCCCCCCc1ccc(-c2noc(CNC(=O)[C@@H]3CCCN3)n2)cc1 [Compound 9m, (S)—N-((3-(4-decylphenyl)-1,2,4-oxadiazol-5-yl)methyl)pyrrolidine-2-carboxamide hydrochloride] | ≤ 2000
CCCCCCCCCCc1ccc(-c2noc(CCCN3CCOCC3)n2)cc1 [Compound 6f, 4-(3-(3-(4-decylphenyl)-1,2,4-oxadiazol-5-yl)propyl)morpholine hydrochloride] | > 2000
CCCCCCCCCCc1ccc(-c2noc(C3CCNCC3)n2)cc1 [Compound 5a, 3-(4-decylphenyl)-5-(piperidin-4-yl)-1,2,4-oxadiazole 2,2,2-trifluoroacetate] | > 2000
CCCCCCCCCCc1ccc(-c2noc(C(=O)NCCN)n2)cc1 [Compound 16a, N-(2-aminoethyl)-3-(4-decylphenyl)-1,2,4-oxadiazole-5-carboxamide hydrochloride] | ≤ 2000
CCCCCCCCCCc1ccc(-c2noc(CC[C@@H](N)C(=O)O)n2)cc1 [Compound 5y, (R)-2-amino-4-(3-(4-decylphenyl)-1,2,4-oxadiazol-5-yl)butanoic acid hydrochloride] | > 2000
CCCCCCCCCCc1ccc(-c2noc(CNC(=O)[C@@H]3CCNC3)n2)cc1 [Compound 9j, (R)—N-((3-(4-decylphenyl)-1,2,4-oxadiazol-5-yl)methyl)pyrrolidine-3-carboxamide hydrochloride] | ≤ 2000
CCCCCCCCCCc1ccc(-c2noc(CCCN3CCCCC3)n2)cc1 [Compound 6e, 3-(4-decylphenyl)-5-(3-(piperidin-1-yl)propyl)-1,2,4-oxadiazole hydrochloride] | > 2000
CCCCNC(=O)c1ccc(-c2noc([C@@H]3CCNC3)n2)cc1 [Compound 13a, (R)—N-butyl-4-(5-(pyrrolidin-3-yl)-1,2,4-oxadiazol-3-yl)benzamide hydrochloride] | > 2000
